# Measured values as given in ChEMBL document CHEMBL1141323, “Iriomoteolides-1b and -1c, 20-membered macrolides from a marine dinoflagellate Amphidinium species” (J Nat Prod, 2007).
# Experiments:
# [1] = Cytotoxicity against human DG75 cells; format: cell-based; details: DG-75
# Raji (Homo sapiens) = assay: Cytotoxicity against EBV-infected Raji cells; details: human gammaherpesvirus 4, Raji
SMILES,IC50 [1] [ng/mL],IC50 (Raji (Homo sapiens)) [ng/mL]
C/C1=C/C(=O)[C@](C)(O)/C=C/C[C@H](C)[C@@H](C[C@H](C)[C@H](C)O)OC(=O)/C=C(/C)[C@@H](C)[C@@H](O)/C=C/C[C@H](O)C1,900,
C=C1C[C@@H]2C/C=C/[C@H](O)[C@H](C)/C(C)=C\C(=O)O[C@H](CCC(C)C(C)O)[C@@H](C)C/C=C/[C@@](C)(O)[C@](O)(C1)O2 (stereo not given in full),2,4
C=C1C[C@@H]2C/C=C/[C@H](O)[C@H](C)/C(C)=C\C(=O)O[C@H](C[C@H](C)[C@H](C)O)[C@@H](C)C/C=C/[C@@](C)(O)[C@](O)(C1)O2,2,4
